From patent US20160039802A1, “3-PYRIMIDIN-4-YL-OXAZOLIDIN-2-ONES AS INHIBITORS OF MUTANT IDH” (NOVARTIS AG, priority 2013, published 2016)

Columns and labels:
[1] = target: T1, Mutant IDH1 R132H (Homo sapiens, UniProt O75874, R132H); assay: Mutant IDH1 biochemical assay: LC-MS detection of 2-HG; conditions: mIDH R132H […], 5 uM NADPH, 100 uM alpha-KG, 45 minutes incubation; range where run multiple times; also: mIDH R132H 0.25 nM, 5 µM NADPH
T1 construct: His6 with PreScission site (N, cleaved yes); made in house; host or cells: E. coli Rosetta 2(DE3)
From the text: Mutant IDH1 biochemical Sssay: LC-MS Detection of 2-HG.

[2] = target: T2, IDH1 (R132H) mutant (Homo sapiens, UniProt O75874, R132H); assay: Fluorescence biochemical assay (NADPH oxidation); conditions: mIDH R132H 10 nM, 10 μM NADPH, 100 μM α-KG; range where run multiple times
T2 construct: His6 with PreScission site (N, cleaved yes); made in house; host or cells: E. coli Rosetta 2(DE3)
Experimental: The IDH1 (R132H) mutant catalyzes the reduced form of NADP+ (NADPH) and α-ketoglutarate (α-KG) to form nicotinamide adenine dinucleotide phosphate (NADP+) and R(−)-2-hydroxyglutarate (2HG). […] Reactions were monitored using the Perkin-Elmer Envision, Model 2101. […] The final reaction mixture contained 2.5% DMSO and test compounds with concentrations ranging 0.0000008-25 μM. The IDH1 (R132H) enzyme was used at a final concentration of 10 nM. Curve fitting for dose response […] determinations was done in the Helios module of the software package DAVID. The 4-parameter logistic model was used: y=min+((max−min)/1+(x/IC50)^shape)

T2 sequence (O75874 whole entry R132H): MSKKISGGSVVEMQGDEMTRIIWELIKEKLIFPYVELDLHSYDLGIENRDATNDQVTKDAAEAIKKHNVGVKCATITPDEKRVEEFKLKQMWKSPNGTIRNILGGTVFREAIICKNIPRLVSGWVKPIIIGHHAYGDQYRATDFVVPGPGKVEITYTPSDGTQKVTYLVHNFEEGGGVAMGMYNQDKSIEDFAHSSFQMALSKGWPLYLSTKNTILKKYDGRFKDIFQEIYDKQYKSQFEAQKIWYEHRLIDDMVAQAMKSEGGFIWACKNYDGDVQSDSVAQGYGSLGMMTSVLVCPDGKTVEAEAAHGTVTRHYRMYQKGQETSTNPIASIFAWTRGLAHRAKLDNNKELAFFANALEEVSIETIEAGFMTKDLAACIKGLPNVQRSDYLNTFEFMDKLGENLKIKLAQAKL
T1 sequence (O75874 whole entry R132H): as above

Row | IC50 [1] | IC50 [2] | Structure (SMILES)
1 | 25.2 nM | 10.3 to 42.4 nM | CC(Nc1nccc(N2C(=O)OC[C@]2(C)C2CC2)n1)c1nc(-c2ccc(Cl)c(OC(F)(F)F)c2)no1 (single isomer, unassigned) [Example 64]
2 | 117 nM | 105 to 111 nM | CNC1CCN(Cc2ccc([C@H](C)Nc3nccc(N4C(=O)OC[C@]4(C)C4CC4)n3)cc2F)CC1 [Example 40, (S)-4-cyclopropyl-3-(2-(((S)-1-(3-fluoro-4-((4-(methylamino)piperidin-1-yl)methyl)phenyl)ethyl)amino)pyrimidin-4-yl)-4-methyloxazolidin-2-one]
3 | 791 nM | 793 to 1210 nM | C[C@H](Nc1nccc(N2C(=O)OCC2(C)C2CC2)n1)c1ccc(F)cc1 (single isomer, unassigned) [Example 46]
4 | 192 nM | 41.8 to 53.1 nM | C[C@H](Nc1nccc(N2C(=O)OC[C@]2(C)C2CC2)n1)c1ccc(CN2CCC(C)(O)CC2)cc1F [Example 34, (S)-4-cyclopropyl-3-(2-(((S)-1-(2-fluoro-4-((4-hydroxy-4-methylpiperidin-1-yl)methyl)phenyl)ethyl)amino)pyrimidin-4-yl)-4-methyloxazolidin-2-one]
5 | 43.7 nM | 105 nM | Cc1cc(N2C(=O)OC[C@@H]2C2CC2)nc(N[C@@H](C)c2cnc(-c3ccc(Cl)cc3)s2)n1 [Example 9, (S)-3-(2-(((S)-1-(2-(4-chlorophenyl)thiazol-5-yl)ethyl)amino)-6-methylpyrimidin-4-yl)-4-cyclopropyloxazolidin-2-one]
6 | 20.2 to 26 nM | 62.9 nM | CC(Nc1nccc(N2C(=O)OC[C@]2(C)C2CC2)n1)c1nc(-c2ccc(Cl)cc2)no1 (single isomer, unassigned) [Example 50]
7 | 2720 nM | 971 nM | C[C@H](Nc1ncc(F)c(N2C(=O)OCC2(C)C2CC2)n1)c1ccc(CN2CCC(N(C)C)CC2)cc1F (single isomer, unassigned) [Example 58]
8 | 2260 nM | 1890 to 2120 nM | CC(Nc1nccc(N2C(=O)OC[C@]2(C)C2CC2)n1)c1nc(-c2ccc(Cl)c(OC(F)(F)F)c2)no1 (single isomer, unassigned) [Example 63]
9 | 696 nM | 236 nM | C[C@H](Nc1ncc(F)c(N2C(=O)OCC2(C)C2CC2)n1)c1ccc(CN2CCC(C)(N)CC2)cc1F (single isomer, unassigned) [Example 61]
10 | 922 nM | 183 nM | C[C@H](Nc1ncc(F)c(N2C(=O)OCC2(C)C2CC2)n1)c1ccc(CN2CCC(C)(N)CC2)c(F)c1 (single isomer, unassigned) [Example 59]
11 | 83.9 nM | 218 nM | C[C@H](Nc1nc(Cl)cc(N2C(=O)OC[C@@H]2C2CC2)n1)c1ccc(C(C)(C)F)cc1F [Example 20, (S)-3-(6-chloro-2-(((S)-1-(2-fluoro-4-(2-fluoropropan-2-yl)phenyl)ethyl)amino)pyrimidin-4-yl)-4-cyclopropyloxazolidin-2-one]
12 | 15.8 nM | 23.8 nM | C[C@H](Nc1nc(Cl)cc(N2C(=O)OC[C@@H]2C2CC2)n1)c1cc(F)c(-c2cnn(C)c2)cc1F [Example 18, (S)-3-(6-chloro-2-(((S)-1-(2,5-difluoro-4-(1-methyl-1H-pyrazol-4-yl)phenyl)ethyl)amino)pyrimidin-4-yl)-4-cyclopropyl oxazolidin-2-one]
13 | 175 nM | 109 to 115 nM | C[C@H](Nc1nccc(N2C(=O)OC[C@]2(C)C2CC2)n1)c1ccc(CN2CCC(N(C)C)CC2)cc1F [Example 33, (S)-4-cyclopropyl-3-(2-(((S)-1-(4-((4-(dimethylamino)piperidin-1-yl)methyl)-2-fluorophenyl)ethyl)amino)pyrimidin-4-yl)-4-methyloxazolidin-2-one]
14 | 217 nM |  | C[C@H](Nc1nccc(N2C(=O)OC[C@]2(C)C2CC2)n1)c1ccc(CN2CCC(N)(CO)CC2)c(F)c1 [Example 42, (S)-3-(2-(((S)-1-(4-((4-amino-4-(hydroxymethyl)piperidin-1-yl)methyl)-3-fluorophenyl)ethyl)amino)pyrimidin-4-yl)-4-cyclopropyl-4-methyloxazolidin-2-one]
15 | 28.6 nM |  | C[C@H](Nc1nccc(N2C(=O)OC[C@]2(C)C2CC2)n1)c1ccc(CN2CCC(C)(N(C)C)CC2)c(F)c1 [Example 37, (S)-4-cyclopropyl-3-(2-(((S)-1-(4-((4-(dimethylamino)-4-methylpiperidin-1-yl)methyl)-3-fluorophenyl)ethyl)amino)pyrimidin-4-yl)-4-methyloxazolidin-2-one]
16 | 8.45 nM | 17.4 nM | Cc1cc(N2C(=O)OC[C@@H]2C2CC2)nc(N[C@@H](C)c2cn(-c3ccc(Cl)cc3)cn2)n1 [Example 7, (S)-3-(2-(((S)-1-(1-(4-chlorophenyl)-1H-imidazol-4-yl)ethyl)amino)-6-methylpyrimidin-4-yl)-4-cyclopropyloxazolidin-2-one]

Row | IC50 [1] | IC50 [2] | Structure (SMILES)
17 | 2660 nM |  | C[C@H](Nc1nccc(N2C(=O)OCC2(C)C2CC2)n1)c1ccc(CN2CCN(C)CC2)cc1 (single isomer, unassigned) [Example 48]
18 | 868 nM | 290 nM | C[C@H](Nc1ncc(F)c(N2C(=O)OCC2(C)C2CC2)n1)c1ccc(CN2CCC(N(C)C)CC2)cc1F (single isomer, unassigned) [Example 57]
19 | > 5000 nM | > 25000 nM | CC(Nc1nccc(N2C(=O)OC[C@@]2(C)C2CC2)n1)c1nc(-c2ccc(Cl)c(OC(F)(F)F)c2)no1 (single isomer, unassigned) [Example 65]
20 | 85 nM | 34.3 to 72.5 nM | CC(Nc1nccc(N2C(=O)OC[C@@]2(C)C2CC2)n1)c1nc(-c2ccc(Cl)c(OC(F)(F)F)c2)no1 (single isomer, unassigned) [Example 66]
21 | 189 nM | 235 to 253 nM | C[C@H](Nc1nccc(N2C(=O)OCC2(C)C2CC2)n1)c1ccc(F)cc1 (single isomer, unassigned) [Example 45]
22 | 211 to 271 nM | 122 to 172 nM | C[C@H](Nc1nccc(N2C(=O)OC[C@]2(C)C2CC2)n1)c1ccc(CN2CCC(N(C)C)CC2)c(F)c1 [Example 30, (S)-4-cyclopropyl-3-(2-(((S)-1-(4-((4-(dimethylamino)piperidin-1-yl)methyl)-3-fluorophenyl)ethyl)amino)pyrimidin-4-yl)-4-methyloxazolidin-2-one]
23 | 57.2 nM | 44.3 nM | C[C@H](Nc1nc(Cl)cc(N2C(=O)OC[C@@H]2C2CC2)n1)c1ccc(-c2cnn(C)c2)cc1F [Example 19, (S)-3-(6-chloro-2-(((S)-1-(2-fluoro-4-(1-methyl-1H-pyrazol-4-yl)phenyl)ethyl)amino)pyrimidin-4-yl)-4-cyclopropyloxazolidin-2-one]
24 | 1520 nM | 584 nM | C[C@H](Nc1ncc(F)c(N2C(=O)OCC2(C)C2CC2)n1)c1ccc(CN2CCC(C)(N)CC2)c(F)c1 (single isomer, unassigned) [Example 60]
25 | < 22.9 nM | 26.9 nM | C[C@H](Nc1nc(Cl)cc(N2C(=O)OC[C@@H]2C2CC2)n1)c1nc(-c2ccc(Cl)cc2)no1 [Example 3, (S)-3-(6-chloro-2-((S)-1-(3-(4-chlorophenyl)-1,2,4-oxadiazol-5-yl)ethylamino)pyrimidin-4-yl)-4-cyclopropyloxazolidin-2-one]
26 | 963 nM |  | C[C@H](Nc1ncc(F)c(N2C(=O)OCC2(C)C2CC2)n1)c1ccc(CN2CCC(N(C)C)CC2)c(F)c1 (stereo partly drawn) [Example 36, 4-cyclopropyl-3-(2-(((S)-1-(4-((4-(dimethylamino)piperidin-1-yl)methyl)-3-fluorophenyl)ethyl)amino)-5-fluoropyrimidin-4-yl)-4-methyloxazolidin-2-one]
27 | 376 nM | 194 to 473 nM | C[C@H](Nc1nccc(N2C(=O)OC[C@]2(C)C2CC2)n1)c1ccc(CN2CCC(N)CC2)c(F)c1 [Example 41, (S)-3-(2-(((S)-1-(4-((4-aminopiperidin-1-yl)methyl)-3-fluorophenyl)ethyl)amino)pyrimidin-4-yl)-4-cyclopropyl-4-methyloxazolidin-2-one]
28 | 22.7 to 35.4 nM | 36.2 nM | Cc1cc(-c2cnc(C(C)Nc3nccc(N4C(=O)OC[C@]4(C)C4CC4)n3)nc2)ccc1F (single isomer, unassigned) [Example 53]
29 | 10.9 nM | 15.9 nM | C[C@H](Nc1nccc(N2C(=O)OC[C@]2(C)C2CC2)n1)c1ccc(CN2CCC(O)(C(F)(F)F)CC2)cc1F [Example 35, (S)-4-cyclopropyl-3-(2-(((S)-1-(2-fluoro-4-((4-hydroxy-4-(trifluoromethyl)piperidin-1-yl)methyl)phenyl)ethyl)amino)pyrimidin-4-yl)-4-methyloxazolidin-2-one]
30 | 1620 nM | 748 nM | C[C@H](Nc1ncc(F)c(N2C(=O)OCC2(C)C2CC2)n1)c1ccc(CN2CCC(C)(N)CC2)cc1F (single isomer, unassigned) [Example 62]
31 | 20 nM | 7.27 nM | C[C@H](Nc1nc(Cl)cc(N2C(=O)OC[C@@H]2C2CC2)n1)c1cn(-c2ccc(F)cc2)cn1 [Example 27, (S)-3-(6-chloro-2-(((S)-1-(1-(4-fluorophenyl)-1H-imidazol-4-yl)ethyl)amino)pyrimidin-4-yl)-4-cyclopropyloxazolidin-2-one]
32 | 47.1 nM | 71.3 nM | Cc1cc(N2C(=O)OC[C@@H]2C2CC2)nc(N[C@@H](C)c2nc(-c3ccc(Cl)cc3)no2)n1 [Example 8, (S)-3-(2-(((S)-1-(3-(4-chlorophenyl)-1,2,4-oxadiazol-5-yl)ethyl)amino)-6-methylpyrimidin-4-yl)-4-cyclopropyloxazolidin-2-one]
